Laboratory results reported in patent US20110059910A1, “Novel aromatic fluoroglycoside derivatives, pharmaceuticals comprising said compounds and the use thereof” (SANOFI-AVENTIS, priority 2008, published 2011).

Biological target: T1, human sodium-dependent glucose transporter 2 (SGLT2, SLC5A2) (Homo sapiens, UniProt P31639)
T1 construct: Bases 21 to 2039 correspond to the complete coding region of human SGLT2; expressed in transfected cells
T1 sequence (P31639 1-672): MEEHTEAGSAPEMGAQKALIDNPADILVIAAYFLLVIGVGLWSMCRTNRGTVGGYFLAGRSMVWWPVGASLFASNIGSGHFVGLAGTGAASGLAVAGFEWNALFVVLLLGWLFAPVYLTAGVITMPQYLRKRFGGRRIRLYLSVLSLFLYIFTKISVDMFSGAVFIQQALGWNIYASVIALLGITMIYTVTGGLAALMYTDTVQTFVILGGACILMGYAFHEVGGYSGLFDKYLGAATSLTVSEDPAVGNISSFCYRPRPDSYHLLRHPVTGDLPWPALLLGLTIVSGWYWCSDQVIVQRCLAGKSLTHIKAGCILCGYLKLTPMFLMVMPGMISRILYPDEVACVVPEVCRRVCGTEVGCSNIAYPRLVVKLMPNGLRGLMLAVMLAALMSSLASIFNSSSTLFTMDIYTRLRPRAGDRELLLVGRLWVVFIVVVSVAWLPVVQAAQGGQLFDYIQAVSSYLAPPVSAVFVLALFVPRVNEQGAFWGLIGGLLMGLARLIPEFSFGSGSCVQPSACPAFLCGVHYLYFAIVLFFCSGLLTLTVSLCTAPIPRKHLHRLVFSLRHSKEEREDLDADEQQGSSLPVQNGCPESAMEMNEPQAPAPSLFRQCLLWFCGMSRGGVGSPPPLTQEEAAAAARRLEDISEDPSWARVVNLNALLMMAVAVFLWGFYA
Assay: Inhibition of the transport activity of human SGLT2 in vitro (α-MDG uptake in CHO-TRex-hSGLT2 cells)
Type: cell-based
Details: 50 μM α-MDG, 120 min at 37° C.
Description: Inhibition of the Transport Activity of the Human Sodium-Dependent Glucose Transporter 2 (SGLT2, SLC5A2) In Vitro
1. Cloning of an Expression Vector for Human SGLT2
The cDNA for human SGLT2 was introduced into the pcDNA4/TO vector (Invitrogen) by means of standard methods of molecular biology as described in Sambrook et al. (Molecular Cloning, A Laboratory Manual, Second Edition). […] Bases 21 to 2039 correspond to the complete coding region of human SGLT2.
2. Production of a Recombinant Cell Line with Inducible Expression of Human SGLT2
The expression vector for human SGLT2 was introduced into CHO-TREx cells (Invitrogen) by means of FuGene6 lipofection (Roche). To select single cell clones, 600 μg/ml of Zeocin (Invitrogen) was added to the cell culture medium (nutrient mixture F-12 (Ham), (Invitrogen) supplemented with 10% fetal calf serum (FBS Gold, PAA), 10 μg/ml Blasticidin S(CN Biosciences), 100 units/ml penicillin, 100 units/ml streptomycin). The functionality of the single cell clones resulting from the selection was tested via their uptake activity for radiolabeled methyl-α-D-glucopyranoside. That cell clone with the highest uptake activity for methyl-α-D-glucopyranoside, referred to hereinafter as CHO-TRex-hSGLT2, was selected for the further experiments and cultured further in the presence of 600 μg/ml Zeocin.
3. Measurement of the Inhibiting Action of Test Substances on the Uptake of methyl-α-D-glucopyranoside (α-MDG)
CHO-TRex-hSGLT2 cells were seeded in cell culture medium in a concentration of 50 000 cells per well in Cytostar-T scintillating 96-well plates (Amersham Biosciences) and cultivated for 24 h. The expression of the recombinant human SGLT2 was induced by adding 1 μg/ml tetrazykline for a further 24 h. For α-MDG uptake experiments, the cells were washed with PBS and then starved at 37° C. in starvation medium (PBS supplemented with 10% fetal calf serum) for 1 hour. After a further washing step with transport assay buffer (140 mM sodium chloride, 2 mm potassium chloride, 1 mm magnesium chloride, 1 mm calcium chloride, 10 mm HEPES/Tris, pH 7.5), the cells were incubated at room temperature either in the absence or presence of test substances of different concentration for 15 min. The test substances were diluted correspondingly in transport assay buffer proceeding from a 10 mm stock solution in dimethyl sulfoxide (40 μl/well). The assay was subsequently started by adding 10 μl/well of a mixture of radiolabeled methyl-α-D-[U-^14C]glucopyranoside (Amersham) and unlabeled methyl-α-D-glucopyranoside (Acros). The final concentration of methyl-α-D-glucopyranoside in the assay was 50 μM. After an incubation time of 120 min at 37° C., the reaction was stopped by adding 50 μl/well of 10 mM methyl-α-D-glucopyranoside in transport assay buffer (4° C.), and the radioactivity taken up into the cells was determined in a MicroBeta Scintillation Microplate Reader (Wallac).
The half-maximum inhibiting action of the test substances (IC50 value) was determined as follows: • 1. Determination of the value for 0% inhibition. This is the measurement in the absence of substance, measured in sodium-containing transport assay buffer. • 2. Determination of the value for 100% inhibition. This is the measurement in the absence of substance, measured in sodium-free transport assay buffer (140 mM choline chloride, 2 mM potassium chloride, 1 mM magnesium chloride, 1 mM calcium chloride, 10 mM HEPES/Tris, pH7.5). • 3. Calculation of the percentage inhibition values of those measurements which were carried out in the presence of different concentrations of test substance. From this, it was then possible to determine that concentration of the test substance which reduces the uptake of the methyl-α-D-glucopyranoside by 50% (IC50 value).

IC50 | SMILES
153 nM | CCc1ccc(Cc2cccc(C3OC(CO)C(F)C(O)C3O)c2)cc1 (centres unmarked) [Example 4]
1600 nM | CCOC(=O)OCC1OC(c2ccc(OC)c(Cc3ccc(OC)cc3)c2)C(O)C(O)C1(F)F (centres unmarked) [Example 14]
165 nM | CCOC(=O)OC1C(O)C(c2ccc(Cl)c(Cc3ccc(OCC)cc3)c2)OC(CO)C1(F)F (centres unmarked) [Example 19]
1060 nM | CCOC(=O)OCC1OC(c2ccc(Cl)c(Cc3ccc(OC)cc3)c2)C(O)C(O)C1F (centres unmarked) [Example 20]
46 nM | OCC1OC(c2ccc(Cl)c(Cc3ccc(OCC4CC4)cc3)c2)C(O)C(O)C1(F)F (centres unmarked) [Example 32]
3000 nM | CCOC(=O)OC[C@H]1O[C@@H](c2ccc(Cl)c(Cc3ccc(Cl)cc3)c2)[C@H](O)[C@@H](O)C1(F)F [Example 45]
107 nM | CCc1ccc(Cc2cc(C3OC(CO)C(F)C(O)C3O)ccc2C(F)(F)F)cc1 (centres unmarked) [Example 52]
257 nM | CCc1ccc(Cc2cc(C3OC(CO)C(F)(F)C(O)C3O)ccc2C(F)(F)F)cc1 (centres unmarked) [Example 54]
